In US7163952B2, “Azole compound and medicinal use thereof” (Japan Tobacco Inc., priority 2001, dated 2007):

Compared with `CN(Cc1ccc(C(=O)O)cc1)c1nc(-c2cnc(N(C)Cc3ccc(C4CCCCC4)cc3)c(Cl)c2)cs1` [Example 232, 4-((N-(4-(5-chloro-6-(N-(4-cyclohexylbenzyl)-N-methylamino)-3-pyridyl)-2-thiazolyl)-N-methylamino)methyl)benzoic acid], `CN(Cc1ccc(C(=O)O)cc1)c1nc(-c2ccc(N(C)Cc3ccc(C4CCCCC4)cc3)c(Cl)c2)cs1` [Example 242, 4-((N-(4-(3-chloro-4-(N-(4-cyclohexylbenzyl)-N-methylamino)phenyl)-2-thiazolyl)-N-methylamino)methyl)benzoic acid] is higher in melting point: 144 to 145 °C for the first, 149 to 150 °C for the second.

First: CN(Cc1ccc(C(C)(C)C)cc1)c1ccc(-c2csc(N(C)Cc3ccc(C(=O)O)cc3)n2)cc1 [Example 233, 4-((N-(4-(4-(N-(4-tert-butylbenzyl)-N-methylamino)phenyl)-2-thiazolyl)-N-methylamino)methyl)benzoic acid]
Second: CN(CCc1ccc(C(C)(C)C)cc1)c1ccc(-c2csc(N(C)Cc3ccc(C(=O)O)cc3)n2)cc1 [Example 235, 4-((N-(4-(4-(N-(2-(4-tert-butylphenyl)ethyl)-N-methylamino)phenyl)-2-thiazolyl)-N-methylamino)methyl)benzoic acid]
The melting point of the first is higher: 166 to 167 °C for the first, 162 °C for the second.

Compared with `CN(Cc1ccc(C(F)(F)F)cc1)c1ccc(-c2csc(N(C)Cc3ccc(C(=O)O)cc3)n2)cc1` [Example 234, 4-((N-methyl-N-(4-(4-(N-methyl-N-(4-trifluoromethylbenzyl)amino)phenyl)-2-thiazolyl)amino)methyl)benzoic acid], `CN(CCc1ccc(C(F)(F)F)cc1)c1ccc(-c2csc(N(C)Cc3ccc(C(=O)O)cc3)n2)cc1` [Example 236, 4-((N-methyl-N-(4-(4-(N-methyl-N-(2-(4-trifluoromethylphenyl)ethyl)amino)phenyl)-2-thiazolyl)amino)methyl)benzoic acid] is lower in melting point: 180 to 181 °C for the first, 158 to 159 °C for the second.

Compared with `CN(C)c1ccc(CCN(C)c2ccc(-c3csc(N(C)Cc4ccc(C(=O)O)cc4)n3)cc2)cc1` [Example 237, 4-((N-(4-(4-(N-(2-(4-dimethylaminophenyl)ethyl)-N-methylamino)phenyl)-2-thiazolyl)-N-methylamino)methyl)benzoic acid], `CN(CCc1ccc(N2CCOCC2)cc1)c1ccc(-c2csc(N(C)Cc3ccc(C(=O)O)cc3)n2)cc1` [Example 238, 4-((N-methyl-N-(4-(4-(N-methyl-N-(2-(4-morpholinophenyl)ethyl)amino)phenyl)-2-thiazolyl)amino)methyl)benzoic acid] is higher in melting point: 164 to 167 °C for the first, 212 to 213 °C for the second.

Compared with `CN(Cc1ccc(C(=O)O)cc1)c1nc(-c2ccc(CN3CCN(c4ccccc4)CC3)cc2)cs1` [Example 239, 4-((N-methyl-N-(4-(4-(4-phenyl-1-piperazinylmethyl)phenyl)-2-thiazolyl)amino)methyl)benzoic acid], `CN(Cc1ccc(C(=O)O)cc1)c1nc(-c2ccc(CN3CCN(Cc4ccccc4)CC3)cc2)cs1` [Example 240, 4-((N-(4-(4-(4-benzyl-1-piperazinylmethyl)phenyl)-2-thiazolyl)-N-methylamino)methyl)benzoic acid] is lower in melting point: 159 to 163 °C for the first, 130 to 135 °C for the second.

First: CCC(CC)c1ccc(CN(C)c2ccc(-c3csc(N(C)Cc4ccc(C(=O)O)cc4)n3)cc2)cc1 [Example 241, 4-((N-(4-(4-(N-(4-(1-ethylpropyl)benzyl)-N-methylamino)phenyl)-2-thiazolyl)-N-methylamino)methyl)benzoic acid]
Second: CC(C)CSc1ccc(CN(C)c2ccc(-c3csc(N(C)Cc4ccc(C(=O)O)cc4)n3)cc2)cc1 [Example 245, 4-((N-(4-(4-(N-(4-isobutylsulfanylbenzyl)-N-methylamino)phenyl)-2-thiazolyl)-N-methylamino)methyl)benzoic acid]
The melting point of the first is higher: 147 to 148 °C for the first, 132 to 134 °C for the second.

First: CN(Cc1ccc(C(=O)O)cc1)c1nc(-c2ccc(CN3CCN(C(=O)OCc4ccccc4)CC3)cc2)cs1 [Example 243, benzyl 4-(4-(2-(N-(4-carboxybenzyl)-N-methylamino)-4-thiazolyl)benzyl)-piperazine-1-carboxylate]
Second: CC(=O)OCOC(=O)c1ccc(CN(C)c2nc(-c3ccc(OCc4ccc(C5CCCCC5)cc4)cc3)cs2)cc1 [Example 270, acetoxymethyl 4-((N-(4-(4-(4-cyclohexylbenzyloxy)phenyl)-2-thiazolyl)-N-methylamino)methyl)benzoate]
The melting point of the first is higher: 122 to 127 °C for the first, 100 to 104 °C for the second.

First: CN(Cc1ccc(C(=O)O)cc1)c1nc(-c2ccc(N(C)Cc3ccc(C(C)(C)C)cc3)c(Cl)c2)cs1 [Example 244, 4-((N-(4-(4-(N-(4-tert-butylbenzyl)-N-methylamino)-3-chlorophenyl)-2-thiazolyl)-N-methylamino)methyl)benzoic acid]
Second: CN(Cc1ccc(C(=O)OCC(=O)OC(C)(C)C)cc1)c1nc(-c2ccc(OCc3ccc(C4CCCCC4)cc3)cc2)cs1 [Example 267, tert-butoxycarbonylmethyl 4-((N-(4-(4-(4-cyclohexylbenzyloxy)phenyl)-2-thiazolyl)-N-methylamino)methyl)benzoate]
The melting point of the first is higher: 153 to 154 °C for the first, 122 to 123 °C for the second.

First: CN(Cc1ccc(C(=O)OC2OC(=O)c3ccccc32)cc1)c1nc(-c2ccc(OCc3ccc(C4CCCCC4)cc3)cc2)cs1 (centres unmarked) [Example 248, 3-oxo-1,3-dihydroisobenzofuran-1-yl 4-((N-(4-(4-(4-cyclohexylbenzyloxy)phenyl)-2-thiazolyl)-N-methylamino)methyl)benzoate]
Second: CCOC(=O)c1ccc(CN(C)c2nc(-c3ccc(OCc4ccc(C5CCCCC5)cc4)cc3)cs2)cc1 [Example 249, ethyl 4-((N-(4-(4-(4-cyclohexylbenzyloxy)phenyl)-2-thiazolyl)-N-methylamino)methyl)benzoate]
The melting point of the first is lower: 104 to 105 °C for the first, 117 to 118 °C for the second.

First: CC(=O)OC(C)OC(=O)c1ccc(CN(C)c2nc(-c3ccc(OCc4ccc(C5CCCCC5)cc4)cc3)cs2)cc1 (centres unmarked) [Example 250, 1-acetoxyethyl 4-((N-(4-(4-(4-cyclohexylbenzyloxy)phenyl)-2-thiazolyl)-N-methylamino)methyl)benzoate]
Second: CCOC(=O)OC(C)OC(=O)c1ccc(CN(C)c2nc(-c3ccc(OCc4ccc(C5CCCCC5)cc4)cc3)cs2)cc1 (centres unmarked) [Example 269, 1-ethoxycarbonyloxyethyl 4-((N-(4-(4-(4-cyclohexylbenzyloxy)phenyl)-2-thiazolyl)-N-methylamino)methyl)benzoate]
The melting point of the first is higher: 116 to 117 °C for the first, 99 to 101 °C for the second.

Compared with `CN(c1ccc(C(=O)[O-])cc1)c1nc(-c2ccc(NCc3ccc(C4CCCCC4)cc3)cc2)cs1.[Na+]` [Example 263, sodium 4-(N-(4-(4-(4-cyclohexylbenzylamino)phenyl)-2-thiazolyl)-N-methylamino)benzoate], `CN(Cc1ccc(C(=O)OCOC(=O)C(C)(C)C)cc1)c1nc(-c2ccc(OCc3ccc(C4CCCCC4)cc3)cc2)cs1` [Example 268, 2,2-dimethylpropionyloxymethyl 4-((N-(4-(4-(4-cyclohexylbenzyloxy)phenyl)-2-thiazolyl)-N-methylamino)methyl)benzoate] is lower in melting point: 260 °C for the first, 88 to 90 °C for the second.

For `CN(Cc1ccc(C2CCCCC2)cc1)c1ccc(-c2csc(NCc3ccc(C(=O)O)cc3)n2)cc1` [Example 247, 4-((4-(4-(N-(4-cyclohexylbenzyl)-N-methylamino)phenyl)-2-thiazolylamino)methyl)benzoic acid], the melting point was 209 °C (dec.).
